Assay results published in ChEMBL document CHEMBL1158174, “The antioxidant activity of 2-(4(or 2)-hydroxyl-5-chloride-1,3-benzene-di-sulfanimide)-chitosan” (Eur J Med Chem, 2008).

Legend:
[1] = Antioxidant activity assessed as superoxide radical scavenging activity at 0.40 mg/mL; type: functional
[2] = Antioxidant activity assessed as hydroxyl radical scavenging activity; type: functional

IC50 [2]: > 711 µg/mL
SMILES: O=C1O[C@H]([C@@H](O)CO)C(O)=C1O [ASCORBIC ACID]
Activity [1]: 33.9%
